Laboratory results reported in US8951982B2, “Methods and compositions for the treatment of eye disorders with increased intraocular pressure” (Sylentis S.A.U., priority 2004, dated 2015).
d = 2'-deoxy (DNA)

Tests used:
[1] = tested on: Normotensive New Zealand White rabbits; assay: In vivo rabbit model of IOP (contact tonometer); conditions: for IOP Reduction (% of saline control): mean normalized maximum percentage of IOP reduction ± SD, topical to corneal surface, once daily for four consecutive days; for decrease of IOP over a saline control: figure legends (FIGS. 5-8), 256 μg dose of siRNA per administration
Method: Normotensive New Zealand White rabbits (males, 2-3 kg) were used in the in vivo assays. The animals were kept in individual cages with free access to food and water. Animals were submitted to artificial 12 hours light/darkness cycles to avoid uncontrolled circadian oscillations of IOP and all experiments were performed at the same time of day to control for any fluctuations in IOP due to circadian oscillations. Animal handling and treatment were carried out in accordance with the European Communities Council Directive (86/609/EEC) and the statement of the Association for Research in Vision and Ophthalmology on the Use of Animals in Ophthalmic and Vision Research. Each animal was used for only one experiment.
IOP measurements were done using a contact tonometer (TonoPen XL, Mentor, Norwell, Mass.) due to past success of measuring intraocular pressures within the range of 3 to 30 mm Hg in rabbits (Abrams et al., 1996, Invest Ophthalmol Vis Sci. 37:940-4). Measurements were performed by delicately applying the tonometer's sensor to the corneal surface of the animal. All measurements fell within the 3 to 30 mm Hg interval with the mean baseline value of intraocular pressure being 17.0±0.39 mm Hg for untreated animals (n=100). In order to avoid distress to the animal, rabbits were topically anesthetized (10 μl of oxibuprocaine/tetracaine, 0.4%/1%, in a saline solution (1/4 v:v)) prior to IOP measurement.
Commercially available drugs were typically administered to the animals by instilling a small volume (typically 40 μl) on the corneal surface. Contralateral eyes were treated with the vehicle alone and were used as controls in each experiment.
siRNA molecules or commercially available drugs were typically administered to the animals as follows. Doses of siRNA in saline solution (0.9% w/v) to a final volume of 40 μl were applied to the corneal surface of one eye each day during four consecutive days. The opposite eye was taken as a control and 40 μl of sterile saline (0.9% w/v) was instilled on it at the same time points. Commercially available drugs were typically administered to the animals by instilling a small volume (typically 40 μl) on the corneal surface. Contralateral eyes were treated with the vehicle alone and were used as controls in each experiment. The IOP was measured before each application and at 2 h, 4 h and 6 h following the instillation for 10 days.
The data are summarized in Table 2 where values represent the mean of the normalized maximum percentage of IOP reduction after siRNA treatment and their standard deviations. The decrease in IOP was statistically significant for all the treated targets.

PTGS2 = assay: siRNA transfection of cells, real time PCR of target gene expression; type: cell-based; conditions: 100 nM siRNA, mean ± SD
Method: Cells (either NPE, OMDC, or HEK293 cells) were incubated with various siRNA molecules and assayed for expression of the native mRNA corresponding to the siRNA molecule. One day prior to transfection, 2−4×10^5 cells were seeded into each well of a 6 well plate in 3 ml of growth medium (DMEM, 10% serum, antibiotics and glutamine) and incubated under normal growth conditions (37° C. and 5% CO2). Lipofectamine 2000 Reagent (Invitrogen Corporation, Carlsbad, Calif.) was used to transfect the cells with the siRNA molecules. The protocol supplied by the manufacturer was followed. Briefly, siRNA molecules were added to cells that were 30%-50% confluent to a final concentration of 100 nM. Prior to addition to the cells, the siRNA molecule was diluted in 250 μl DMEM and incubated at room temperature for 5 minutes. The siRNA was then mixed with 6 μl of Lipofectamine 2000 Reagent that also had been diluted in 250 μl DMEM and the mixture was incubated at room temperature for 20 minutes. The siRNA/Lipofectamine mixture was added to the cells drop-wise with 2 ml of fresh growth medium low in antibiotics. After swirling the plates to ensure uniform distribution of the transfection complexes, the cells were incubated under normal growth conditions for 24 hours. After incubation with either of the transfection complexes, the medium was removed and replaced with 3 ml of fresh complete growth medium. mRNA was collected from cells at 24, 48 and 72 hours post-transfection.
After transfection and incubation with a siRNA molecule, total RNA fractions were extracted from cells using protocols well known in the art. The effect of siRNAs on target gene expression was analyzed by real time PCR and semi-quantitative PCR according to standard protocols. Approximately 250 ng of total RNA was used for reverse transcription followed by PCR amplification with specific primers for the target gene in a reaction mixture containing SYBR Green I Dye (Applied Biosystems, Foster City, Calif.). Basic PCR conditions comprised an initial step of […], followed by 40 cycles of 5 s at 95° C., 10 s at 62° C. and 15 s at 72° C. Quantification of beta-actin mRNA was used as a control for data normalization.
The values represent the mean of the percentage of siRNA interference of each gene expression once normalized with the control cells and their standard deviations.

Substance: SEQ ID NO: 1856: siRNA, rabbit homolog of SEQ ID NO: 546; target printed ADRAIA (GACCGACAAAUCCGACUCG; 3' dTdT, sugars by position and backbone not given here; duplex siRNA; listed as Oryctolagus sp.)
- IOP Reduction (% of saline control) [1]: 9.51 ± 1.04%

Substance: SEQ ID NO: 1820: siRNA targeting ATP1B2 (ATPase, Na+/K+ transporting, beta 2 polypeptide) (GUUCCACGUGAACUACACA; 3' dTdT, sugars by position and backbone not given here; duplex siRNA; listed as Homo sapiens)
- IOP Reduction (% of saline control) [1]: 16.32 ± 0.91%

Substance: SEQ ID NO: 477: siRNA targeting PTGS2 (CACUGCCUCAAUUCAGUCU; 3' dTdT, sugars by position and backbone not given here; listed as Homo sapiens)
- % of gene transcript level in control cells (PTGS2; 24 h post-transfection): 75.45 ± 14.71%
- % of gene transcript level in control cells (PTGS2; 48 h post-transfection): 61.83 ± 16.96%

Substance: SEQ ID NO: 426: siRNA targeting PTGS2 (prostaglandin endoperoxide synthase 2) (GCAGGCUAAUACUGAUAGG; 3' dTdT, sugars by position and backbone not given here; listed as Homo sapiens)
- % of gene transcript level in control cells (PTGS2; 24 h post-transfection): 68.68 ± 12.48%
- % of gene transcript level in control cells (PTGS2; 48 h post-transfection): 70.17 ± 19.21%
- decrease of IOP over a saline control [1]: 22%
- IOP Reduction (% of saline control) [1]: 23.78 ± 2.27%

Substance: SEQ ID NO: 1859: siRNA targeting AGTR1; rabbit homolog of SEQ ID NO: 705 (ACUCAAGACUGUGGCCAGU; 3' dTdT, sugars by position and backbone not given here; duplex siRNA; listed as Oryctolagus sp.)
- IOP Reduction (% of saline control) [1]: 9.72 ± 1.35%

Substance: SEQ ID NO: 1858: siRNA, rabbit homolog of SEQ ID NO: 619; target printed ADRAM (GAACUUUCAUGAGGACACC; 3' dTdT, sugars by position and backbone not given here; duplex siRNA; listed as Oryctolagus sp.)
- IOP Reduction (% of saline control) [1]: 17.48 ± 1.30%

Substance: SEQ ID NO: 421: siRNA targeting PTGS2 (CACAACAGAGUAUGCGAUG; 3' dTdT, sugars by position and backbone not given here; listed as Homo sapiens)
- % of gene transcript level in control cells (PTGS2; 24 h post-transfection): 81.00 ± 13.54%
- % of gene transcript level in control cells (PTGS2; 48 h post-transfection): 66.85 ± 18.67%

Substance: SEQ ID NO: 774: siRNA targeting AGTR2 (angiotensin II receptor, type 2) (GCAUCUUAUAUAGUUCCCC; two-thymidine 3' overhang, other chemistry not given here; listed as Homo sapiens)
- IOP Reduction (% of saline control) [1]: 11.22 ± 1.53%

Substance: SEQ ID NO: 5: siRNA targeting carbonic anhydrase IV (CA4) (CAUCGUCACCACCAAGGCA; two-thymidine 3' overhang, other chemistry not given here; listed as Homo sapiens)
- decrease of IOP over a saline control [1]: 16%
- IOP Reduction (% of saline control) [1]: 14.47 ± 5.00%

Substance: SEQ ID NO: 522: siRNA targeting carbonic anhydrase XII (CA12) (AUGAUCAACAACUUCCGGC; two-thymidine 3' overhang, other chemistry not given here; listed as Homo sapiens)
- IOP Reduction (% of saline control) [1]: 24.30 ± 1.29%

Substance: SEQ ID NO: 1850: siRNA targeting PTGS1; rabbit homolog of SEQ ID NO: 322 (CGUGAGCUAUUACACGCGU; 3' dTdT, sugars by position and backbone not given here; duplex siRNA; listed as Oryctolagus sp.)
- IOP Reduction (% of saline control) [1]: 14.62 ± 1.93%

Substance: SEQ ID NO: 139: siRNA targeting human adrenergic, beta-2-, receptor (ADRB2) (CAUUGUGCAUGUGAUCCAG; listed as RNA, chemistry not given here; listed as Homo sapiens)
- decrease of IOP over a saline control [1]: 22%

Substance: SEQ ID NO: 1841: siRNA targeting rabbit adrenergic, beta-2-, receptor; rabbit homolog of SEQ ID NO: 139 (CAUCGUGCACGUGAUCCAG; 3' dTdT, sugars by position and backbone not given here; duplex siRNA; listed as Oryctolagus sp.)
- IOP Reduction (% of saline control) [1]: 21.18 ± 1.88%

Substance: SEQ ID NO: 1846: siRNA targeting rabbit acetylcholinesterase; rabbit homolog of SEQ ID NO: 189 (CCGUGAGCUGAGUGAGGAC; two-thymidine 3' overhang, other chemistry not given here; listed as Oryctolagus sp.)
- IOP Reduction (% of saline control) [1]: 25.25 ± 2.70%

Substance: SEQ ID NO: 1848: siRNA targeting rabbit selectin E (SELE); rabbit homolog of SEQ ID NO: 262 (GCCAACUUGUAAAGCUGUG; 3' dTdT, sugars by position and backbone not given here; duplex siRNA; listed as Oryctolagus sp.)
- IOP Reduction (% of saline control) [1]: 21.80 ± 1.74%

Substance: SEQ ID NO: 1860: siRNA targeting ACE1; rabbit homolog of SEQ ID NO: 866 (CUGGAACUAUAACACCAAC; two-thymidine 3' overhang, other chemistry not given here; listed as Oryctolagus sp.)
- IOP Reduction (% of saline control) [1]: 17.51 ± 1.28%

Substance: SEQ ID NO: 105: siRNA targeting adrenergic, beta-1-, receptor (ADRB1) (CGACCCCAAGUGCUGCGAC; 3' dTdT, sugars by position and backbone not given here; listed as Homo sapiens)
- decrease of IOP over a saline control [1]: 25%
- IOP Reduction (% of saline control) [1]: 28.04 ± 2.98%

Substance: SEQ ID NO: 1399: siRNA targeting ATP1A1 (ATPase, Na+/K+ transporting, alpha 1 polypeptide) (CUGGAACUCUGACUCAGAA; 3' dTdT, sugars by position and backbone not given here; listed as Homo sapiens)
- IOP Reduction (% of saline control) [1]: 18.13 ± 1.39%

Substance: SEQ ID NO: 189: siRNA targeting human acetylcholinesterase (ACHE) (CCGUGAGCUGAGCGAGGAC; two-thymidine 3' overhang, other chemistry not given here; listed as Homo sapiens)
- decrease of IOP over a saline control [1]: 25%

Substance: SEQ ID NO: 1838: siRNA targeting rabbit carbonic anhydrase II; rabbit homolog of SEQ ID NO: 73 (GAUUGGCAGUGCUACACCA; 3' dTdT, sugars by position and backbone not given here; duplex siRNA; listed as Oryctolagus sp.)
- IOP Reduction (% of saline control) [1]: 24.84 ± 3.41%
